Source: patent publication US20220137060A1, “FULL LENGTH KINASE ACTIVITY-CONFORMATION REPORTER” (UNIVERSITAT INNSBRUCK, priority 2016, published 2022)
“Also recorded” adds a separate entry of the source.

Key:
Assay type in all cases: cell-based
[1] = molecular target: T1, BRAF-V600E (Homo sapiens, UniProt P15056, V600E); assay: Intramolecular Rluc PCA reporter F[1]-BRAF(V600E)-F[2], transiently transfected HEK293 cells; details: HEK293, 1 μM; for Effect on reporter bioluminescence signal / conformation: BRAF V600E reporter, 3 h treatments (FIG. 5B, 6B)
T1 construct: Renilla luciferase PCA fragment F[1]; Renilla luciferase PCA fragment F[2]; expressed in transfected cells; host or cells: HEK293 (transient, pcDNA3.1)
Description: (§1) Cell culture and antibodies. HEK293 and SW480 cells were grown in DMEM supplemented with 10% (vol/vol) FBS. Cells were passaged three times a week to keep the cells in culture. Transient transfections were performed with Transfectin reagent (Bio-Rad, #1703350). […] The primary antibody used was anti-BRAF(F-7) (Santa Cruiz Biotechnology, #sc-5284).
(§2) Expression constructs. The Rluc PCA hybrid proteins F[1]-BRAF-F[2] and F[1]-BRAF(V600E)-F[2] have been generated using the identical cloning approach. Following PCR amplification of the human BRAF or BRAF(V600E) gene, the coding region of the BRAF protein (SEQ ID No: 2 or 5) was fused N-terminally with F[1] (SEQ ID No: 13) and C-terminally with F[2] (SEQ ID No: 17) of the Rluc PCA coding region. In addition. the sequence of two interjacent 10-aa linkers (GGGGS)2 (SEQ ID No: 18) was integrated by cloning. As vector backbone we used the pcDNA3.1 plasmid. The MEK1 expression constructs (s. SEQ ID No: 23) and the Gluc PCA based BRAF reporter (s. SEQ ID No: 24) were prepared analogously.
Mutagenesis. Site directed mutagenesis have been performed to generate following mutations in the reporter constructs: V600E, V600K, V600R, D594G, and G469A in BRAF and S218A and the S218E/S222E double mutation in MEK1.
(§3) Renilla/Gaussia luciferase PCA experiments. Cells were grown in DMEM supplemented with 10% FBS. Indicated versions of the Rluc PCA based biosensor were transiently overexpressed in 24-well plate format. 48 hours post-transfection, the growth medium was partially removed and different compounds added with concentrations as indicated in the figure legends. To measure the dose-dependent effect of the lead molecules (candidate compounds) on the intramolecular Rluc PCA reporter, the attached cells were treated with different concentrations and for different time-frames. The time-dependent consequences of the lead compounds on kinase conformations were recorded with a final compound concentration of 1 μM. For the Rluc PCA measurements the growth medium was carefully removed and the cells were washed with PBS. Cells were resuspended in PBS and the cell suspensions were transferred to 96-well plates and subjected to luminescence analysis using the LMaxTM-II-384 luminometer (Molecular Devices). Rluc luminescence signals were integrated for 10 seconds with a delay time of 3 seconds following addition of 20 μl of the Rluc substrate benzyl-coelenterazine (5 μM; Nanolight, #301) in PBS with a concentration of 25 nM. Dose-dependent effects of drug exposure on luminescence signals originating from BRAF conformations were compared using indicated controls. Cells were collected after PCA measurements and lysed with Laemmli sample buffer to control the protein expression levels. In case of Gluc reporters, coelenterazine was used as luminescence substrate.

[2] = molecular target: T2, wild type BRAF (Homo sapiens, UniProt P15056); assay: Intramolecular Rluc PCA reporter F[1]-BRAF-F[2] (wild type), transiently transfected HEK293 cells; parameters: Renilla luciferase PCA fragment F[1]; Renilla luciferase PCA fragment F[2]; expressed in transfected cells; host or cells: HEK293 (transient, pcDNA3.1); details: for Effect on reporter luminescence signal: HEK293, 1 μM, 3 h treatments (FIG. 5A, 6A)
Description: as §1, §2, §3
Target sequence in this assay (P15056 with tags, fused parts or gaps): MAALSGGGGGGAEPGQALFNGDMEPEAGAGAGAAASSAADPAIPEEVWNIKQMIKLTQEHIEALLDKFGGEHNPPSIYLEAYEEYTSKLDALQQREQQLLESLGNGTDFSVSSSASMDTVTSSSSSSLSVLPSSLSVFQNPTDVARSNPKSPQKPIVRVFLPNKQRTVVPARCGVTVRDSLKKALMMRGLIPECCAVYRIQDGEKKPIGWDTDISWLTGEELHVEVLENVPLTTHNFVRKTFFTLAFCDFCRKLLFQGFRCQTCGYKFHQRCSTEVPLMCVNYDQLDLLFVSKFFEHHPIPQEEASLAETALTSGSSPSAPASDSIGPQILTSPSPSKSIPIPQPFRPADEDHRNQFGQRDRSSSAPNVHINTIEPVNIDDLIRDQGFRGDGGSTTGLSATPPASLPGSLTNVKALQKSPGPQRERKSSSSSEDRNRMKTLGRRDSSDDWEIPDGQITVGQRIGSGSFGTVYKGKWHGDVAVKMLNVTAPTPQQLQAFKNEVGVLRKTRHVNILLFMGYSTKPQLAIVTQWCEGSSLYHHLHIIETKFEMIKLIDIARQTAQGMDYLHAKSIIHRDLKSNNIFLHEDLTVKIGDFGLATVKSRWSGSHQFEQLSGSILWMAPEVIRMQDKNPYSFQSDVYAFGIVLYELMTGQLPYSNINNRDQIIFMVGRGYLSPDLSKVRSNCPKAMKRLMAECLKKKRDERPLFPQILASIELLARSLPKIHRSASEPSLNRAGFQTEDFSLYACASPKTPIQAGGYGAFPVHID

[3] = molecular target: BRAF V600K (Homo sapiens, UniProt P15056, V600K); assay: Intramolecular Rluc PCA mutant BRAF reporter (V600K), transiently transfected HEK293 cells; details: HEK293, 1 μM, 3 h treatments (FIG. 5B)
Description: as §1
(§4) Expression constructs. The Rluc PCA hybrid proteins F[1]-BRAF-F[2] and F[1]-BRAF(V600E)-F[2] have been generated using the identical cloning approach. Following PCR amplification of the human BRAF or BRAF(V600E) gene, the coding region of the BRAF protein (SEQ ID No: 2 or 5) was fused N-terminally with F[1] (SEQ ID No: 13) and C-terminally with F[2] (SEQ ID No: 17) of the Rluc PCA coding region. […]
(§5) Renilla/Gaussia luciferase PCA experiments. […] The time-dependent consequences of the lead compounds on kinase conformations were recorded with a final compound concentration of 1 μM. […] Cells were resuspended in PBS and the cell suspensions were transferred to 96-well plates and subjected to luminescence analysis using the LMaxTM-II-384 luminometer (Molecular Devices). Rluc luminescence signals were integrated for 10 seconds with a delay time of 3 seconds following addition of 20 μl of the Rluc substrate benzyl-coelenterazine (5 μM; Nanolight, #301) in PBS with a concentration of 25 nM. […] In case of Gluc reporters, coelenterazine was used as luminescence substrate.

[4] = molecular target: BRAF V600R (Homo sapiens, UniProt P15056, V600R); assay: Intramolecular Rluc PCA mutant BRAF reporter (V600R), transiently transfected HEK293 cells; details: HEK293, 1 μM, 3 h treatments (FIG. 5B)
Description: as §1, §4, §5

[5] = molecular target: BRAF D594G (Homo sapiens, UniProt P15056, D594G); assay: Intramolecular Rluc PCA mutant BRAF reporter (D594G), transiently transfected HEK293 cells; details: HEK293, 1 μM, 3 h treatments (FIG. 5B)
Description: as §1, §4, §5

[6] = molecular target: BRAF G469A (Homo sapiens, UniProt P15056, G469A); assay: Intramolecular Rluc PCA mutant BRAF reporter (G469A), transiently transfected HEK293 cells; details: HEK293, 1 μM, 3 h treatments (FIG. 5B)
Description: as §1, §4, §5

[7] = molecular target: T1, BRAF-V600E; assay: Intramolecular Gluc PCA reporter GlucF[1]-BRAF-V600E-GlucF[2], transiently transfected HEK293 cells; details: HEK293, 1 μM, 3 h treatments (FIG. 8)
Description: as §1, §4, §5

[8] = molecular target: T2, wild type BRAF; assay: Intramolecular Gluc PCA reporter GlucF[1]-BRAF-GlucF[2] (wild type), transiently transfected HEK293 cells; details: HEK293, 1 μM, 3 h treatments (FIG. 8)
Description: as §1, §4, §5
Target sequence in this assay (P15056 with tags, fused parts or gaps): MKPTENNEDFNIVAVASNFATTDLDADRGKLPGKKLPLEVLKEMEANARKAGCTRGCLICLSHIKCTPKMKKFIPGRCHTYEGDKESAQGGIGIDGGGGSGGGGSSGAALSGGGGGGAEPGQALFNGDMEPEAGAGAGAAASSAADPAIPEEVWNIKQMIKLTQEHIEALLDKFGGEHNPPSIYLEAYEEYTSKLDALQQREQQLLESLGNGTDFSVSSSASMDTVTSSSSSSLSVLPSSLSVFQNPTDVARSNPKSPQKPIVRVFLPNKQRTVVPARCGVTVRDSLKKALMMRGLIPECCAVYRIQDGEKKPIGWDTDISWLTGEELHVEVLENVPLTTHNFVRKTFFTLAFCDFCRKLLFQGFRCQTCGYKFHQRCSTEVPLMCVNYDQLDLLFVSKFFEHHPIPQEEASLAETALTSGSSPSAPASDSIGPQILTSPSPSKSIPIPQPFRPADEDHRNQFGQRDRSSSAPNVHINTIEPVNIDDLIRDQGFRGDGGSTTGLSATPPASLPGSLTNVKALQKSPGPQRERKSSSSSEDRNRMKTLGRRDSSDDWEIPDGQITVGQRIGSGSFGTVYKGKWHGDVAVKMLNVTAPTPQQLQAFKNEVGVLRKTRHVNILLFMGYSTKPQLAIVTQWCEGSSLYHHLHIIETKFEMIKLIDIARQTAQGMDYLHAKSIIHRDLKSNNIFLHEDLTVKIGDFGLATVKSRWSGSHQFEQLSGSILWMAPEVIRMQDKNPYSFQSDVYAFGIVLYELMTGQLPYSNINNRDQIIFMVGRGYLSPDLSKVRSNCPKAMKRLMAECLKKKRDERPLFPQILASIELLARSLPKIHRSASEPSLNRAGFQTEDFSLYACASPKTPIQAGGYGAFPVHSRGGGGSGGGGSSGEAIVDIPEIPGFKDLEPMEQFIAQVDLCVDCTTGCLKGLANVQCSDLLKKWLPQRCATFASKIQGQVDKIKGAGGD

T1 sequence (P15056 with tags, fused parts or gaps V600E): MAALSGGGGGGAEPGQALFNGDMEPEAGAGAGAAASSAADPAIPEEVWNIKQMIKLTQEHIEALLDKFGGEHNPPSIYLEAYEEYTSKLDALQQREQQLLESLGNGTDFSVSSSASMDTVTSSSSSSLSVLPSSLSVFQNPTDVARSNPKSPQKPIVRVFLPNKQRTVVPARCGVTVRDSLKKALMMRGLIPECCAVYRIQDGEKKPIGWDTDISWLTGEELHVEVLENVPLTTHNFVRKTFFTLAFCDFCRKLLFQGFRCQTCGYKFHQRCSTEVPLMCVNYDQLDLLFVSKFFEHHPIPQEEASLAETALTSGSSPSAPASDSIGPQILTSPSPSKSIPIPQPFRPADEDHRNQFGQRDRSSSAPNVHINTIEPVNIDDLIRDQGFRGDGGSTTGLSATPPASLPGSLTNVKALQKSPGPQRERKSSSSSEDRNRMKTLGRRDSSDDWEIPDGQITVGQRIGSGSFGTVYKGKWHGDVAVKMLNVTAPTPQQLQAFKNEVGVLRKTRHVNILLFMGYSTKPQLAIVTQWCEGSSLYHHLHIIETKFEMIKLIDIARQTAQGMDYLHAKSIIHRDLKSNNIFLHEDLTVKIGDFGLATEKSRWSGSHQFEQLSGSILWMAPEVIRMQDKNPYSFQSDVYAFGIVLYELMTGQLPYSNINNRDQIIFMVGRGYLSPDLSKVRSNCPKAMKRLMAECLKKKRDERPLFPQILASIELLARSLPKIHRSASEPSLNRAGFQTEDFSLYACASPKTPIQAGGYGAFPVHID
BRAF G469A, sequence (P15056 with tags, fused parts or gaps G469A): as the sequence (P15056 with tags, fused parts or gaps V600E) above, with G469A, E600V counted along it
BRAF V600K, sequence (P15056 with tags, fused parts or gaps V600K): as the sequence (P15056 with tags, fused parts or gaps V600E) above, with E600K counted along it
BRAF D594G, sequence (P15056 with tags, fused parts or gaps D594G): as the sequence (P15056 with tags, fused parts or gaps V600E) above, with D594G, E600V counted along it
BRAF V600R, sequence (P15056 with tags, fused parts or gaps V600R): as the sequence (P15056 with tags, fused parts or gaps V600E) above, with E600R counted along it

| Effect on Gluc PCA luciferase signal / conformation [8] | Time-dependent effect on reporter conformation (Rluc PCA signal) ([2]; HEK293, 1 μM (FIG. 4)) | SMILES | Effect on reporter bioluminescence signal / conformation [1] | Effect on reporter luminescence signal [2] | Time-dependent effect on reporter conformation (Rluc PCA signal) ([1]; BRAF-V600E reporter, up to 3 h (FIG. 4)) | Effect on reporter bioluminescence signal / conformation [3] | Effect on reporter bioluminescence signal / conformation [4] | Effect on reporter bioluminescence signal / conformation [5] | Effect on reporter bioluminescence signal / conformation [6] | Effect on Gluc PCA luciferase signal / conformation [7] |
| --- | --- | --- | --- | --- | --- | --- | --- | --- | --- | --- |
|  |  | CC(C)(C)c1nc(-c2cccc(NS(=O)(=O)c3c(F)cccc3F)c2F)c(-c2ccnc(N)n2)s1 [dabrafenib] | shift to the closed conformation | only slight changes in the luminescence signal |  |  |  |  |  |  |
| not affected | not affected | O=C(c1c(F)ccc(NS(=O)(=O)N2CC[C@@H](F)C2)c1F)c1c[nH]c2ncc(-c3cnc(C4CC4)nc3)cc12 [PLX8394] | significant shift to the closed conformation | not susceptible; also recorded: only slight changes in the luminescence signal | immediate shift of the BRAF-V600E reporter to the closed conformation was observed increasing up to 3 h | significant shift to the closed conformation | significant shift to the closed conformation | significant shift to the closed conformation | significant shift to the closed conformation | enhanced the luciferase signal exclusively with the V600E BRAF mutant |
|  |  | N#CC(=C(/N)Sc1ccccc1N)/C(C#N)=C(\N)Sc1ccccc1N [U0126] | exclusively influenced by the BRAF specific inhibitors | only slight changes in the luminescence signal |  |  |  |  |  |  |
|  |  | COC(=O)N[C@@H](C)CNc1nccc(-c2cn(C(C)C)nc2-c2cc(Cl)cc(NS(C)(=O)=O)c2F)n1 [encorafenib] | shift to the closed conformation | only slight changes in the luminescence signal |  |  |  |  |  |  |
|  |  | COc1cc(F)c(F)c(Nc2ccc(I)cc2F)c1NS(=O)(=O)C1(C[C@H](O)CO)CC1 [refametinib] | exclusively influenced by the BRAF specific inhibitors | only slight changes in the luminescence signal |  |  |  |  |  |  |
